Source: PMC12749626, “Expediting hit-to-lead progression in drug discovery through reaction prediction and multi-dimensional optimization” (Nature Communications, 2025)

What was measured:
[1] = tested on: NEURONAL NICOTINIC REC.; details: 10 uM; n=2
[2] = Parallel Artificial Membrane Permeability (PAMPA); details: for Papp at 18 h, 150 µM: PAMPA, pH 6
[3] = tested on: MUSCULAR NICOTINIC REC.; details: 10 uM; n=2
[4] = target: CYP2C9 (Homo sapiens, UniProt P11712); test: Cytochrome P450 inhibition assay, CYP2C9; details: liver microsomes
[5] = Hepatocyte clearance; details: for hepatocyte CLint at 1 µM: human, hepatocytes
[6] = tested on: PCP NMDA REC.; details: 10 uM; n=2
[7] = target: CYP3A4 (Homo sapiens, UniProt P08684); test: Cytochrome P450 inhibition assay, CYP3A4; details: liver microsomes
CYP3A4, sequence (P08684 whole entry): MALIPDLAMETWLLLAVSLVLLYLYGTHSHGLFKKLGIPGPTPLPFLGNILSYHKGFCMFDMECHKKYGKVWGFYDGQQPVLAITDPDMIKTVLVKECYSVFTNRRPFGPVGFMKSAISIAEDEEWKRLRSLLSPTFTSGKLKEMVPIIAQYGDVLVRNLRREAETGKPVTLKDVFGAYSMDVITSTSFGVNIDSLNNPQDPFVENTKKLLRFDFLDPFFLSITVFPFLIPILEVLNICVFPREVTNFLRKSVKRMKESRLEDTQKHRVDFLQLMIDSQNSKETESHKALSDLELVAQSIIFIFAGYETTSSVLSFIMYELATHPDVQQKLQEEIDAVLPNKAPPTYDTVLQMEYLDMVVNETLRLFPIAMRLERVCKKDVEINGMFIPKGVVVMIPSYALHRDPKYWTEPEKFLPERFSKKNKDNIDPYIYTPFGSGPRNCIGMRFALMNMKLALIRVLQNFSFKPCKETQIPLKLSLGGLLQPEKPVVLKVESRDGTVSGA

[8] = target: ABCB1 (MDR1, human P-gp) (Homo sapiens, UniProt P08183); test: P-glycoprotein (P-gp) assay in LLC-PK1 cells transfected with ABCB1; details: for Papp A→B: human, LLC-PK1
[9] = target: κ OPIOID REC. (Homo sapiens, UniProt P41145); test: biochemical; details: read-out: κ OPIOID REC. percent activity or inhibition compared to the assay reference
κ OPIOID REC., sequence (P41145 whole entry): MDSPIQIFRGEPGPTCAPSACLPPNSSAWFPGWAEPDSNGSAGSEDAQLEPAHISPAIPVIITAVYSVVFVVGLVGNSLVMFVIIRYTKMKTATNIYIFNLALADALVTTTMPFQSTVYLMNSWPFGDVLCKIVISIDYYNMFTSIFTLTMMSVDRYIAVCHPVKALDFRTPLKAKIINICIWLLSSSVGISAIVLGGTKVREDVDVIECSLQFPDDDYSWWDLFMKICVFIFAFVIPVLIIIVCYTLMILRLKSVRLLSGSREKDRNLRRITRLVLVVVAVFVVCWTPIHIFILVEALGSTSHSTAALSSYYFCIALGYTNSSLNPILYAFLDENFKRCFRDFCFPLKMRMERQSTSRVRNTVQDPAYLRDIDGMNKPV

[10] = target: GSK-3A (Homo sapiens, UniProt P49840); test: biochemical; details: read-out: GSK-3A percent activity or inhibition compared to the assay reference
GSK-3A, sequence (P49840 whole entry): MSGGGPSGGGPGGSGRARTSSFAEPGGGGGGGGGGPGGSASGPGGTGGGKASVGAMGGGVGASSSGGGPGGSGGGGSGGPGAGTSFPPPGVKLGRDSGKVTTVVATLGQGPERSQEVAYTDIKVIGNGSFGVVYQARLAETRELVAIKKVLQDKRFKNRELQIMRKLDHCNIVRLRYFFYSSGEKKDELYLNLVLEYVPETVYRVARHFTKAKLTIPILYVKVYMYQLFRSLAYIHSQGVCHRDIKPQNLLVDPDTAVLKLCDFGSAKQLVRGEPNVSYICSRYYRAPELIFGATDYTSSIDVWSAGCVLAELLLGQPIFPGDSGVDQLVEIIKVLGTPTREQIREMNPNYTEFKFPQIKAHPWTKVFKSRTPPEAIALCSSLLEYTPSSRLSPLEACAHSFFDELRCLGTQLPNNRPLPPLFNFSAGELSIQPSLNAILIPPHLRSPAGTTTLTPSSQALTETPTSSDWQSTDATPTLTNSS

[11] = target: 5HT1A (Homo sapiens, UniProt P08908); test: biochemical; details: read-out: 5HT1A percent activity or inhibition compared to the assay reference
[12] = target: DOPAMINE D2 REC. (short) (Homo sapiens, UniProt P14416); test: biochemical; details: read-out: DOPAMINE D2 REC. (short) percent activity or inhibition compared to the assay reference
[13] = target: CYCLO OXYGENASE 2 (Homo sapiens, UniProt P35354); test: biochemical; details: read-out: CYCLO OXYGENASE 2 percent activity or inhibition compared to the assay reference
CYCLO OXYGENASE 2, sequence (P35354 18-604): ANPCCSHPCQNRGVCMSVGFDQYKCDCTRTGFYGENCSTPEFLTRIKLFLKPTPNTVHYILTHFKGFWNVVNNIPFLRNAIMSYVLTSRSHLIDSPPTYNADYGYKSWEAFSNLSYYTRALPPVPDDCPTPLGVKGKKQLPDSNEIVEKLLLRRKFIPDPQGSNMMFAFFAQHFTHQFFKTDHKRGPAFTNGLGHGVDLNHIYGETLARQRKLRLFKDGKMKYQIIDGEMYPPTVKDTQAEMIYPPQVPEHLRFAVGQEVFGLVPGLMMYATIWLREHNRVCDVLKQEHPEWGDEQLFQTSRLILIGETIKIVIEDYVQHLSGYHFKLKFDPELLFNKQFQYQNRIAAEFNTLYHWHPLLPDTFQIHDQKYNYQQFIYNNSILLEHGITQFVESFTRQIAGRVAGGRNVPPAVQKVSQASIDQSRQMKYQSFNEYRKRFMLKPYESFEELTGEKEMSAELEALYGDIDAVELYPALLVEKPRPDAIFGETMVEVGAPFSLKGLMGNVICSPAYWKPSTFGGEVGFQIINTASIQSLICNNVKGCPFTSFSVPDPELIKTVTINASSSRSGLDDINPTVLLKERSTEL

[14] = target: β2-ADRENOCEPTOR (Homo sapiens, UniProt P07550); test: biochemical; details: read-out: β2-ADRENOCEPTOR percent activity or inhibition compared to the assay reference
[15] = target: A[…]. ENZ. (Homo sapiens, UniProt P12821); test: biochemical; details: read-out: A[…]. ENZ. percent activity or inhibition compared to the assay reference
[16] = target: GLUC[…]. (Homo sapiens, UniProt P04150); test: biochemical; details: read-out: GLUC[…]. percent activity or inhibition compared to the assay reference
GLUC[…]., sequence (P04150 whole entry): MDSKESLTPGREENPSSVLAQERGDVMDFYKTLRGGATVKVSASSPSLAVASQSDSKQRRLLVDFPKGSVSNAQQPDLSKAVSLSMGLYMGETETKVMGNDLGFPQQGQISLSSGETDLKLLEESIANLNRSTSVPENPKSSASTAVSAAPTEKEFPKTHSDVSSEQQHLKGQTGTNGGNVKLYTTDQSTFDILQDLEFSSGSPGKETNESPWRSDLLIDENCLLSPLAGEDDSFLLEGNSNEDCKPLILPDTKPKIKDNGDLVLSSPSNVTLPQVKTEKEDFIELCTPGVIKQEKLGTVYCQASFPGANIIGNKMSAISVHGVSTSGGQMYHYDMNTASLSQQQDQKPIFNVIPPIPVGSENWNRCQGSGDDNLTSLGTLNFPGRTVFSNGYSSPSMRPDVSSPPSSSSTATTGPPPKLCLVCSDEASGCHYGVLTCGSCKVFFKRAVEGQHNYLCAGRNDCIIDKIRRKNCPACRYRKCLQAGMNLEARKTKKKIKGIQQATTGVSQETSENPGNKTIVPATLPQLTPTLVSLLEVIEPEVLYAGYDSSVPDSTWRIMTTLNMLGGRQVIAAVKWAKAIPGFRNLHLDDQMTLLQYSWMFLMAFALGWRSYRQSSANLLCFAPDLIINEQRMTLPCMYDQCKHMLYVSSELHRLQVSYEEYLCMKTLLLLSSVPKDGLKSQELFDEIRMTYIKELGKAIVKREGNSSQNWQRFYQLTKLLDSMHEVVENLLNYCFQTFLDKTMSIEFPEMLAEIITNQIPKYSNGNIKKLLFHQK

[17] = target: C[…]. CB1 (Homo sapiens, UniProt P21554); test: biochemical; details: read-out: C[…]. CB1 percent activity or inhibition compared to the assay reference
[18] = target: DOPAMINE D1 REC. (Homo sapiens, UniProt P21728); test: biochemical; details: read-out: DOPAMINE D1 REC. percent activity or inhibition compared to the assay reference
[19] = target: β1-ADRENOCEPTOR (Homo sapiens, UniProt P08588); test: biochemical; details: read-out: β1-ADRENOCEPTOR percent activity or inhibition compared to the assay reference
[20] = target: HISTAMINE H2 REC. (Homo sapiens, UniProt P25021); test: biochemical; details: read-out: HISTAMINE H2 REC. percent activity or inhibition compared to the assay reference
HISTAMINE H2 REC., sequence (P25021 whole entry): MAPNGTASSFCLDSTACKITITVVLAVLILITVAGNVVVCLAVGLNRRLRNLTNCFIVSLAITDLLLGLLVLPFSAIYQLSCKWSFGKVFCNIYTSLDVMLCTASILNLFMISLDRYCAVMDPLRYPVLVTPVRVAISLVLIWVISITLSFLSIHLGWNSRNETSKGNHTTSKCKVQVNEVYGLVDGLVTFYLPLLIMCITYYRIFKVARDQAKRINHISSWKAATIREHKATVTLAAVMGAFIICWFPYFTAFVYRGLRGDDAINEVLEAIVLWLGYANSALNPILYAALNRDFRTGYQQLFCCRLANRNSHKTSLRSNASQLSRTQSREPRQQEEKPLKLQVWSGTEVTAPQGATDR

[21] = target: α2A-ADRENOCEPTOR (Homo sapiens, UniProt P08913); test: biochemical; details: read-out: α2A-ADRENOCEPTOR percent activity or inhibition compared to the assay reference
UniProt P08913, sequence (P08913 whole entry): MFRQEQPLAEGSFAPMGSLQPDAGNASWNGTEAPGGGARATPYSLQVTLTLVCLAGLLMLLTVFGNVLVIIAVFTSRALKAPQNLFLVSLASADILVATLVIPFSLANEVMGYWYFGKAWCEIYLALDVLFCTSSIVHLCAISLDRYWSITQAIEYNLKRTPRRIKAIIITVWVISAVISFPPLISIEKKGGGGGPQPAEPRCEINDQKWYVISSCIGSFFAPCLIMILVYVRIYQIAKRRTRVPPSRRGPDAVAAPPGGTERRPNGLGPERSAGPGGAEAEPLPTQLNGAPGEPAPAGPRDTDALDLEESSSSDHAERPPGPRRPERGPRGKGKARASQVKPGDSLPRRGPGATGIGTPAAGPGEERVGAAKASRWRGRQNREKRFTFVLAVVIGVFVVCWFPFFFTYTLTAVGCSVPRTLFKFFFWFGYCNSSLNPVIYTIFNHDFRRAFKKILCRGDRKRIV

[22] = target: PPARγ (Homo sapiens, UniProt P37231); test: biochemical; details: read-out: PPARγ percent activity or inhibition compared to the assay reference
PPARγ, sequence (P37231 whole entry): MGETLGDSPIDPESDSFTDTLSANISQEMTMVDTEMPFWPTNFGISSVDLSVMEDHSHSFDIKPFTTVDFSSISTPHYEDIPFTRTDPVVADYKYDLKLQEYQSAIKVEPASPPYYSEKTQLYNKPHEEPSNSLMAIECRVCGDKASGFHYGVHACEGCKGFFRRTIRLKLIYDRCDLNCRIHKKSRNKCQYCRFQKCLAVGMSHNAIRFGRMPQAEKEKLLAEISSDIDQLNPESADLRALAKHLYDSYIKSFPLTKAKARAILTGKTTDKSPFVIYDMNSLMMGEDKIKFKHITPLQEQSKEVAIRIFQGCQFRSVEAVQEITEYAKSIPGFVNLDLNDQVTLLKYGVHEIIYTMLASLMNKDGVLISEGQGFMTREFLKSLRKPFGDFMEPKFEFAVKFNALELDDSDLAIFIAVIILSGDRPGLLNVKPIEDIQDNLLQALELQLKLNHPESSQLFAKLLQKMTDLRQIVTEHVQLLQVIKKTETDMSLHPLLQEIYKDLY

[23] = target: HISTAMINE H1 REC. (Homo sapiens, UniProt P35367); test: biochemical; details: read-out: HISTAMINE H1 REC. percent activity or inhibition compared to the assay reference
[24] = target: PHOSPHODIESTERASE 3B (Homo sapiens, UniProt Q13370); test: biochemical; details: read-out: PHOSPHODIESTERASE 3B percent activity or inhibition compared to the assay reference
[25] = target: HIV-1 PROTEASE (Human immunodeficiency virus type 1 group M subtype B, UniProt P04585); test: biochemical; details: read-out: HIV-1 PROTEASE percent activity or inhibition compared to the assay reference
[26] = target: ANGIOTENSIN II REC. 1 (Homo sapiens, UniProt P30556); test: biochemical; details: read-out: ANGIOTENSIN II REC. 1 percent activity or inhibition compared to the assay reference
ANGIOTENSIN II REC. 1, sequence (P30556 whole entry): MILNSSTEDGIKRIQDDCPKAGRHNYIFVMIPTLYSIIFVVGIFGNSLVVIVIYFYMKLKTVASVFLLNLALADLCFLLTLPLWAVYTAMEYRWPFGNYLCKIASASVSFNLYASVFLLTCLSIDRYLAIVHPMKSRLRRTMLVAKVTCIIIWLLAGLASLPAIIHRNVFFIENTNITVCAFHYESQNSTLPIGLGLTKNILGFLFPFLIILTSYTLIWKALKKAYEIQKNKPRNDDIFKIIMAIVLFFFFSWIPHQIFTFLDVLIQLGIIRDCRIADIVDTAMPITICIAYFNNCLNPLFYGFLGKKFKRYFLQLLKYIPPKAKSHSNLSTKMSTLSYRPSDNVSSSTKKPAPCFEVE

[27] = target: ESTROGEN REC. α (Homo sapiens, UniProt P03372); test: biochemical; details: read-out: ESTROGEN REC. α percent activity or inhibition compared to the assay reference
[28] = target: SEROTONIN TRANSPORTER (Homo sapiens, UniProt P31645); test: biochemical; details: read-out: SEROTONIN TRANSPORTER percent activity or inhibition compared to the assay reference
[29] = target: 5HT2B (Homo sapiens, UniProt P41595); test: biochemical; details: read-out: 5HT2B percent activity or inhibition compared to the assay reference
5HT2B, sequence (P41595 whole entry): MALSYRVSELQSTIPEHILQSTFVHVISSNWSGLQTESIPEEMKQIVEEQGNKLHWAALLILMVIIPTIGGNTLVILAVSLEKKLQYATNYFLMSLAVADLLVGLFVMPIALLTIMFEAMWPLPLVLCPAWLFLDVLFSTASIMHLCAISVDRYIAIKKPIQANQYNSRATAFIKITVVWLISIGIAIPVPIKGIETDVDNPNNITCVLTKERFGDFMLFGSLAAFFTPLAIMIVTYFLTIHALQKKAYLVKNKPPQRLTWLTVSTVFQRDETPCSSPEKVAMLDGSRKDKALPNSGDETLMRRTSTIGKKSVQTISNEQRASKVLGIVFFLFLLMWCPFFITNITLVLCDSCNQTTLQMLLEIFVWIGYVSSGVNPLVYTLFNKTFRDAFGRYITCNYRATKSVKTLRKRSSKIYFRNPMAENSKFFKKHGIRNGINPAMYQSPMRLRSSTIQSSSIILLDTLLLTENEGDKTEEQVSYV

SMILES | NEURONAL NICOTINIC REC. percent activity or inhibition compared to the assay reference [1] | MUSCULAR NICOTINIC REC. percent activity or inhibition compared to the assay reference [3] | CYP2C9 Inhibition [4] | PCP NMDA REC. percent activity or inhibition compared to the assay reference [6] | CYP3A4 Inhibition [7] | inhibition at 10 µM [9] | inhibition at 10 µM [10] | inhibition at 10 µM [11] | inhibition at 10 µM [12] | Papp at 18 h, 150 µM [2] | inhibition at 10 µM [13] | inhibition at 10 µM [14] | inhibition at 10 µM [15] | inhibition at 10 µM [16] | hepatocyte CLint at 1 µM [5] | inhibition at 10 µM [17] | inhibition at 10 µM [18] | inhibition at 10 µM [19] | inhibition at 10 µM [20] | inhibition at 10 µM [21] | other results
O=C(c1ccc2nc(-c3cnccc3C3(C4CCC4)CC3)oc2c1)N1CCN(c2nc3nc(Cl)ccc3o2)CC1 [Compound 27] | -8% | 2% | 73% | 8% | > 90% |  |  |  |  |  |  |  |  |  |  |  |  |  |  |  | PAMPA permeability ([2]; donor buffer pH 6.0, 18-hour incubation): 0.9 10^-6 cm/s; Hepatocyte clearance ([5]; cryopreserved hepatocytes of human origin, 1 µM compound): 101.0 µL/min/10^6 cells; P-gp ([8]; apparent permeability, apical-to-basolateral, LLC-PK1 cells with human P-gp): 7.1 ×10⁻⁶ cm/s
O=C(c1ccc2nc(-c3cnccc3C3CCCC3)oc2c1)N1CC2(CC(n3cnc(C4CC4)n3)C2)C1 [Compound 29] | 6% | 24% | 70% | -1% | 84% | 32% | 16% | 19% | 4% | 5.9 ×10⁻⁶ cm/s | 23% | 7% | -13% | -6% | 181 µL/min/1e6 cells | 9% | 7% | 7% | 11% | 18% | cell permeability ([2]; in words, SI2.2, Fig. S1 (PAMPA vs LipE)): potent cell permeability; inhibition at 10 µM [22]: 16%; inhibition at 10 µM [23]: 18%; inhibition at 10 µM [24]: 6%; inhibition at 10 µM [25]: 31%; inhibition at 10 µM [26]: 15%; inhibition at 10 µM [27]: -3%; inhibition at 10 µM [28]: -11%; Papp A→B [8]: 13.2 ×10⁻⁶ cm/s; inhibition at 10 µM [29]: 55%
O=C(c1ccc2nc(-c3cccnc3)oc2c1)N1CCN(c2nc3ccccc3c(=O)[nH]2)CC1 [Compound 17] |  |  | 2% |  | 16% | 15% | 8% | 1% | -10% | 4 ×10⁻⁶ cm/s | 20% | 1% | 16% | -13% | 7.3 µL/min/1e6 cells | 2% | 3% | 4% | 1% | 7% | inhibition at 10 µM [22]: -4%; inhibition at 10 µM [23]: 13%; inhibition at 10 µM [24]: 2%; inhibition at 10 µM [25]: 11%; inhibition at 10 µM [26]: -3%; inhibition at 10 µM [27]: 0%; inhibition at 10 µM [28]: -5%; Papp A→B [8]: 11.7 ×10⁻⁶ cm/s; inhibition at 10 µM [29]: 28%
O=C(c1ccc2nc(-c3cnccc3C3CCCC3)oc2c1)N1CCN(c2nc3nc(Cl)ccc3o2)CC1 [Compound 23] | -3% | 0% | 45% | 7% | > 90% | 18% | 1% | 11% | -15% | 4 ×10⁻⁶ cm/s | 4% | 4% | -17% | -2% | 179 µL/min/1e6 cells | 2% | -1% | 2% | -1% | 3% | inhibition at 10 µM [22]: 7%; inhibition at 10 µM [23]: 11%; inhibition at 10 µM [24]: -8%; inhibition at 10 µM [25]: 31%; inhibition at 10 µM [26]: 11%; inhibition at 10 µM [27]: 5%; inhibition at 10 µM [28]: 10%; Papp A→B [8]: 8.9 ×10⁻⁶ cm/s; inhibition at 10 µM [29]: 3%
